Experiments:
[1] = system: HL60; assay: WST-1 cell viability assay, HL60; assay type: cell-based, human; settings: HL60, 18 hours
Procedure: (§1) The cell lines of acute myeloid leukemia KG-1a and HL60 (American Type Culture Collection) were cultured in IMDM medium supplemented with 2 mM of L-glutamine, […] of penicillin, 100 μg/ml of streptomycin, and 15% fetal bovine serum (FBS).
(§2) The cell lines and primary cells were cultured in 96-well plates (5×10e5 cells per well) with the addition of the indicated concentrations of WIN 55,212-2 or PGN cannabinoids in DMSO or with the solvent only in triplicate at 18, 48, and 72 hours. Caspase inhibitor Z-VAD (OMe)-FMK or the CB2 receptor antagonist PGN-8, -37, and -70, together with the cannabinoid WIN-55,212-2, were also added. Cell viability was determined by means of the WST-1 assay [2-(4-iodophenyl)-3-(4-nitrophenyl)-5-(2,4-disulfophenyl)-2H-tetrazolium] according to the manufacturer's instructions (Dojindo Molecular Technologies). Optical densities were measured at 450 nm using a Multiskan™ Go Microplate plate reader (Thermo Fisher Scientific, Waltham, Mass., USA).
(§3) Now it will be analyzed whether the exposure to cannabinoids had any effect on the viability of the tumor cells in vitro. To that end, the human AML U937, HL60, KG-1a, NB-4, MOLM-13, and KG-1 cell lines were cultured in serum-free medium and exposed to various concentrations of WIN-55,212-2 (range of 100 nM to 50 μM) for 18 hours, and cell viability was measured by means of WST-1 assays (Table 1). […]

[2] = system: U266 cells; assay: MM xenograft in NGS mice; assay type: in vivo
Procedure: The “NOD/scid/IL-2R gammae null” (NGS) mice were acquired from Charles River (France). The tumor xenografts were induced by the subcutaneous injection of 5×10^6 U266 cells mixed with 100 μl of Matrigel (BD Biosciences) in 8-week old mice. When the tumors became palpable (>0.5 cm), the mice were randomly assigned in the following groups (10 mice per group), which received i.p.: 1) 5 mg/kg WIN-55 every 24 hours, 2) 5 mg/kg WIN-55 every 48 hours, and 3) a vehicle. Two groups were left tumor-free and served as a negative control, receiving treatment every 24 or 48 hours, respectively. The tumor growth was evaluated daily by measuring the two bisecting diameters of the tumor with a digital Vernier gauge or caliper. The volume was calculated using the following formula: volume=length×(width) e2×0.4 mm^3. The animals were sacrificed when the length or width of the tumor reached 2 cm.

[3] = system: KG-1; assay: WST-1 cell viability assay, KG-1; assay type: cell-based, human; settings: KG-1, 18 hours
Procedure: U937, NB-4, KG-1, and MOLM-13 (DMSZ, Braunschweig, Germany) were cultured in complete RPMI 1640 medium (with 2 mM of L-glutamine, 100 mg of penicillin, 100 μg/ml of streptomycin, and with 10% FBS), supplemented with 10 mM HEPES, 1×NaPuvuvato, and 1× non-essential amino acids.
as §2
Now it will be analyzed whether the exposure to cannabinoids had any effect on the viability of the tumor cells in vitro. […]

[4] = system: KG-1a; assay: WST-1 cell viability assay, KG-1a; assay type: cell-based, human; settings: 18 hours
Procedure: as §1, §2, §3

[5] = system: HL60; assay: Mitochondrial damage and ER stress in HL60 cells; assay type: cell-based, human; settings: HL60, 50 μM, 15 and 30 minutes
Procedure: The controls that are untreated and the cells (10^6 cells per assay) treated with WIN-55,212-2 (50 μM) for 15 and 30 minutes at 37° C. were stained with 5 μM MitoSOX probe [Molecular Probes (Invitrogen)] to detect the mitochondrial superoxide. The MitoSOX signal was detected by flow cytometry.
The detailed methodology for analyzing mitochondrial membrane potential (APm), Western Blot analysis, and immunocytofluorescence analysis has been described elsewhere 29

[6] = system: RPMI8226; assay: MTT cell viability assay, myeloma cell line RPMI; assay type: cell-based, human; settings: RPMI, MTT, 18 hours, doses 0-50 μM; read-out: IC50, cell viability
Procedure: In vitro studies were carried out using six different human MM cell lines, U266, RPMI8226, MM1S, MM1R, U266-LR7, and RPMI-LR5. For ex vivo assays, human primary cells from healthy donors and MM patients were used (Table 1). Human MM cell lines U266, RPMI8226, and MM1.S were acquired from ATCC and lines U266-LR7, RPMI-LR5, and MM1.R were kindly provided by Dr. Enrique Ocio (Hospital Universitario de Salamanca, Spain). The primary cells were obtained from bone marrow (BM) aspirates or peripheral blood (PB) samples, and the peripheral blood mononuclear cells (PBMCs) were isolated by Ficoll-Hypaque centrifugation and washed twice in phosphate buffered saline (PBS) containing 1% BSA. Hematopoietic stem cells and B and T lymphocytes were isolated from healthy PB donors by positive immunomagnetic separation using human MACS CD34+, CD19+, and CD3+ microbeads, respectively. MM plasma cells were obtained from the bone marrow (BM) of patients with an infiltration of cells of more than 30% (Table 1). The MM plasma cells were identified using CD138+, and were then distinguished from the other cell populations by flow cytometry using a suitable combination of antibodies: anti-human CD64-FITC, CD34-PE, CD56-APC, CD38-APC-H7, and CD45-Pacific Blue antibodies (BD Biosciences, San Jose, Calif.). All the cell lines were cultured in RPMI-1640 supplemented with 10% fetal bovine serum (FBS) and 1% penicillin/streptomycin, as recommended by the supplier. For human primary cells, the concentration of FBS was up to 20%.
The MM cell lines and primary cells were exposed to different doses of indazole compounds, and viability was evaluated at 18, 48, and 72 hours. Pretreatments with the ceramide synthesis inhibitor (FB1), pan-caspase (ZVAD-FMK), and CB antagonists (PGN-8, PGN-37, and PGN-70) were performed for 30 minutes, and then the cells were incubated with indazole compound WIN-55 up to 18 hours. Cell viability was determined using the MTT assay Cell Counting Kit-8 (Dojindo, Kumamoto, Japan) according to the manufacturer's instructions.

SMILES: CS(=O)(=O)O.Cc1c(C(=O)c2cccc3ccccc23)c2cccc3c2n1[C@H](CN1CCOCC1)CO3 [WIN-55, (R)-(+)-[2,3-dihydro-5-methyl-3-(4-morpholinomethyl)-pyrrolo[1,2,3]-1,4-benzoxazin-6-yl]-1-naphthalenylmethanone mesylate]
- % viable cells at 50 μM [1]: 28.4%
- IC50 [1]: 19.4 µM
- tumor growth (tumor volume) ([2]; 5 mg/kg i.p. every 24 or 48 hours, NGS mice, U266 xenograft): considerably inhibits tumor growth
- first day on which tumor volume differences were statistically significant ([2]; 5 mg/kg i.p. every 24 hours): 13 days
- first day on which tumor volume differences were statistically significant ([2]; 5 mg/kg i.p. every 48 hours): 16 days
- % viable cells at 50 μM [3]: 57.4%
- IC50 [3]: 33.2 µM
- % viable cells at 50 μM [4]: 42.1%
- IC50 [4]: 22 µM
- mitochondrial damage and ER stress [5]: early mitochondrial damage and ER stress
- IC50 [6]: 11.7 µM

From patent publication US20200281897A1, “INDAZOLE DERIVATIVES FOR CANCER TREATMENT” (Servicio Andaluz de Salud, priority 2016, published 2020)
